Laboratory results as given in patent US20100297047A1, “ESTERS OF GLYCEROL AND THEIR USES IN COSMETIC AND PHARMACEUTICAL APPLICATIONS” (BIOPHIL ITALIA S.P.A., priority 2007, published 2010).

Assay: Solubilisation of poorly soluble active ingredients in the Olea europea triglycerides/diglycerides mixture
Format: physicochemical
From the text: Improved formulations have been prepared by solubilising lipophilic ingredients, which are known for their interesting cosmetic activity but also for their difficult usage due to their poor solubility and/or dispersion into common cosmetic matrixes.
Ceramides are major components (roughly 40%) of the lipidic layers of the epidermis barrier, which drive the balance between hydration and loss of water, having the important role of “cement” between the corneocytes, i.e. the brick cells forming the dermal layers. The high difficulty for the application of ceramides in cosmetics is their poor solubility: in order to solubilise them into esters, a heating step above 90° C. is normally required with possible damage of the ceramides.
The use of triglycerides/diglycerides mixture as a solubiliser has allowed the solubilisation of ceramide-3 also at high concentration (up to 50%) without excessive and long time heating steps, A liquid ingredient, easy to use by simple addition into the lipid phase of the cosmetic formulation, has been obtained so far.
Sericin is one of the two families of proteins constituting the pure silk secreted by the silkworm glands: its dimensions vary from 60 up to 500 kDa. […]

Compound | concentration at which ceramide-3 is solubilised (triglycerides/diglycerides mixture as solubiliser, without excessive and long time heating steps) | dissolution of high molecular weight sericin (in mixtures of triglycerides/diglycerides from olive, compared with other commonly used vehicles or solubilisers)
CCCCCCCCCCCCCCCCCC(=O)N[C@@H](CO)[C@H](O)[C@H](O)CCCCCCCCCCCCCC [ceramide-3] | up to 50% | –
sericin | – | successfully dissolved
